Consider six compounds from ChEMBL document CHEMBL5634077, “Recent advances in 1,2,3- and 1,2,4-triazole hybrids as antimicrobials and their SAR: A critical review” (2023).

Experiment [1] relates to Escherichia coli. Description: Antibacterial activity against Escherichia coli assessed as reduction in bacterial growth. The format is functional.
Experiment [2] deals with Aspergillus niger. Put plainly: Antifungal activity against Aspergillus niger assessed as fungal growth inhibition. The format is functional.
Experiment [3] has as its system Escherichia coli. Description: Antibacterial activity against Escherichia coli assessed as reduction in bacterial growth by broth microdilution method. Type of experiment: functional. (In general: Dilution methods test growth across graded concentrations, often in twofold steps.)
In experiment [4] the test system is Aspergillus flavus. Put plainly: Antifungal activity against Aspergillus flavus assessed as inhibition of fungal growth. Type of experiment: functional.
For experiment [5], the system named is Candida albicans. Description: Antifungal activity against Candida albicans assessed as inhibition of fungal growth. Type of experiment: functional.
Experiment [6] deals with Escherichia coli. Put plainly: Antibacterial activity against Escherichia coli assessed as inhibition of bacterial growth. The format is functional.
Experiment [7] concerns Klebsiella pneumoniae. Put plainly: Antibacterial activity against Klebsiella pneumoniae assessed as inhibition of bacterial growth. Type of experiment: functional.
In experiment [8] the test system is Staphylococcus aureus. Put plainly: Antibacterial activity against Staphylococcus aureus assessed as inhibition of bacterial growth. The format is functional.
Experiment [9] relates to Rhizopus. Description: Antifungal activity against Rhizopus assessed as inhibition of fungal growth. Type of experiment: functional.
Experiment [10] deals with Bacillus subtilis. Put plainly: Antibacterial activity against Bacillus subtilis ATCC 6633 assessed as reduction in microbial growth. Type of experiment: functional.
The subject of experiment [11] is Proteus vulgaris. Put plainly: Antibacterial activity against Proteus vulgaris assessed as reduction in bacterial growth. Type of experiment: functional.
Experiment [12] concerns Salmonella typhimurium. Put plainly: Antibacterial activity against Salmonella typhimurium SL1344 assessed as reduction in microbial growth. Type of experiment: functional, Salmonella enterica subsp. enterica serovar Typhimurium. The conditions noted are these: Salmonella enterica.
For experiment [13], the system named is Pseudomonas aeruginosa. Description: Antibacterial activity against Pseudomonas aeruginosa MTCC 1034 assessed as reduction in bacterial growth. The format is functional.
Experiment [14] concerns Staphylococcus aureus. Description: Antibacterial activity against Staphylococcus aureus ATCC 6538p assessed as reduction in microbial growth. The format is functional.
Experiment [15] concerns Staphylococcus aureus. Description: Antibacterial activity against Staphylococcus aureus ATCC 29213 assessed as reduction in bacterial growth by micro-broth dilution method. The format is functional.
In experiment [16] the test system is Escherichia coli. Description: Antibacterial activity against Escherichia coli ATCC 25922 assessed as reduction in microbial growth. The format is functional.
Experiment [17] has as its system Bacillus subtilis. Put plainly: Antibacterial activity against Bacillus subtilis MTCC 441 assessed as reduction in bacterial growth. The format is functional.
In experiment [18] the test system is Micrococcus luteus. Put plainly: Antibacterial activity against Micrococcus luteus IFC 12708 assessed as reduction in microbial growth. The format is functional.
For experiment [19], the system named is Bacillus subtilis. Put plainly: Antibacterial activity against Bacillus subtilis assessed as reduction in bacterial growth. The format is functional.
The subject of experiment [20] is Escherichia coli. Put plainly: Antibacterial activity against Escherichia coli ATCC 8739 assessed as reduction in bacterial growth by micro-broth dilution method. Type of experiment: functional.
The subject of experiment [21] is Micrococcus luteus. Put plainly: Antibacterial activity against Micrococcus luteus assessed as reduction in microbial growth. Type of experiment: functional.
For experiment [22], the system named is Pseudomonas aeruginosa. Put plainly: Antibacterial activity against Pseudomonas aeruginosa MCCB 0035 assessed as reduction in bacterial growth by micro-broth dilution method. Type of experiment: functional.
Experiment [23] concerns Proteus vulgaris. Description: Antibacterial activity against Proteus vulgaris ATCC 3851 assessed as reduction in microbial growth. Type of experiment: functional.
Experiment [24] relates to Staphylococcus aureus. Description: Antibacterial activity against Staphylococcus aureus MTCC 3160 assessed as reduction in bacterial growth. The format is functional.
Experiment [25] has as its system Aspergillus fumigatus. Description: Antifungal activity against Aspergillus fumigatus 7544 assessed as reduction in fungal growth incubated for 5 to 7 days by NCCLS based assay. Type of experiment: functional. As to conditions: time 5-7 day.
The subject of experiment [26] is Candida albicans. Description: Antifungal activity against Candida albicans MTCC 227 assessed as inhibition of fungal growth. The format is functional.
For experiment [27], the system named is Candida albicans. Description: Antifungal activity against Candida albicans SC5314 assessed as reduction in fungal growth incubated for 24 hrs by NCCLS based assay. Type of experiment: functional.
The test system of experiment [28] is Nakaseomyces glabratus. Put plainly: Antifungal activity against Candida glabrata assessed as reduction in fungal growth by CLSI based micro-dilution asssay. Type of experiment: functional.
For experiment [29], the system named is Candida albicans. Put plainly: Antifungal activity against Candida albicans IFRC 194 assessed as reduction in fungal growth by CLSI based micro-dilution asssay. Type of experiment: functional.
Experiment [30] relates to Candida albicans. Put plainly: Antifungal activity against Candida albicans assessed as fungal growth inhibition by CLSI based method. The format is functional.
For experiment [31], the system named is Candida albicans. Description: Antifungal activity against Candida albicans Y0109 assessed as reduction in fungal growth incubated for 24 hrs by NCCLS based assay. The format is functional.
Experiment [32] has as its system Trichophyton rubrum. Description: Antifungal activity against Trichophyton rubrum assessed as reduction in fungal growth incubated for 5 to 7 days by NCCLS based assay. Type of experiment: functional. The conditions noted are these: time 5-7 day.
Experiment [33] has as its system Aspergillus niger. Description: […] activity against Aspergillus niger NCIM 2191 assessed as reduction in […] by micro-broth dilution method. The format is functional.
Experiment [34] deals with Candida parapsilosis. Put plainly: Antifungal activity against Candida parapsilosis IFRC 1269 assessed as reduction in fungal growth by CLSI based micro-dilution asssay. The conditions noted are these: Lodderomyces parapsilosis. Type of experiment: functional.
Experiment [35] has as its system Nakaseomyces glabratus. Description: Antifungal activity against Candida glabrata 537 assessed as reduction in fungal growth incubated for 72 hrs by NCCLS based assay. Type of experiment: functional.
Experiment [36] concerns Cryptococcus neoformans. Description: Antifungal activity against Cryptococcus neoformans 32609 assessed as reduction in fungal growth incubated for 72 hrs by NCCLS based assay. Type of experiment: functional.
The subject of experiment [37] is Aspergillus fumigatus. Description: […] activity against Aspergillus fumigatus NCIM 2081 assessed as reduction in […] by micro-broth dilution method. The format is functional.
Experiment [38] has as its system Pichia kudriavzevii. Put plainly: Antifungal activity against Candida krusei IFRC 1012 assessed as reduction in fungal growth by CLSI based micro-dilution asssay. The format is functional.
Experiment [39] concerns Nannizzia gypsea. Put plainly: Antifungal activity against Microsporum gypseum assessed as reduction in fungal growth incubated for 5 to 7 days by NCCLS based assay. The format is functional. As to conditions: time 5-7 day.
Experiment [40] deals with Candida albicans. Description: Antifungal activity against Candida albicans NCIM 2087 assessed as fungal growth inhibition. The format is functional.
Experiment [41] concerns Cryptococcus neoformans. Description: Antifungal activity against Cryptococcus neoformans assessed as fungal growth inhibition by CLSI based method. Type of experiment: functional.
Experiment [42] has as its system Candida tropicalis. Put plainly: Antifungal activity against Candida tropicalis IFRC 1057 assessed as reduction in fungal growth by CLSI based micro-dilution asssay. The format is functional.
The test system of experiment [43] is Candida albicans. Description: Antifungal activity against Candida albicans assessed as diameter of inhibition zone at 50 to 100 ug/ml by disc-diffusion method. The format is functional. As to conditions: dose 50-100 µg/ml.
In experiment [44] the test system is Aspergillus flavus. Put plainly: Antifungal activity against Aspergillus flavus assessed as diameter of inhibition zone at 50 to 100 ug/ml by disc-diffusion method. The format is functional. As to conditions: dose 50-100 µg/ml. (Agar diffusion results depend on both activity and mobility in agar.)

In brackets after ≈: the same amount, converted by molar mass.

`O=C(Cn1cc(COc2ccc(C(=O)/C=C/c3ccccc3)cc2)nn1)Nc1ccc([N+](=O)[O-])cc1`: the minimum inhibitory concentration (MIC) – broadly, the lowest concentration that inhibits growth of the organism – in experiment [1] amounted to 12 µM (≈ 5.8 µg/mL); in [2], 12 µM.

For the compound `CC(C)Cc1ccc(C(C)C(=O)NC(Cc2cn(Cc3cn(CC(=O)Nc4ccccc4[N+](=O)[O-])nn3)c3ccccc23)C(=O)NC(Cc2ccccc2)C(N)=O)cc1` (stereo not given), the MIC in experiment [3] is 25 µg/mL (≈ 31.3 µM).

Regarding `COc1cc(N2CCC(c3n[nH]c(=S)n3-c3cccc(Cl)c3)CC2)ccc1Cl`, the minimal inhibitory concentration (MIC) was 4 µg/mL (≈ 9.19 µM) in experiment [4]; 8 µg/mL (≈ 18.4 µM) in experiment [5]; 8 µg/mL (≈ 18.4 µM) in experiment [6]; 4 µg/mL (≈ 9.19 µM) in experiment [7]; 4 µg/mL (≈ 9.19 µM) in experiment [8]; 8 µg/mL (≈ 18.4 µM) in experiment [9].

As to `CC1(C)S[C@@H]2[C@H](NC(=O)[C@H](N)c3ccccc3)C(=O)N2[C@H]1C(=O)O` [AMPICILLIN], the MIC in experiment [10] is 1.56 µg/mL; in experiment [11], 1.56 µg/mL (≈ 4.46 µM); in experiment [12] it was 1.56 µg/mL; in experiment [13], 0.5 µg/mL (≈ 1.43 µM); in experiment [14] it was 1.56 µg/mL; in [15] it was 2 µg/mL (≈ 5.72 µM). The MIC in experiment [16] is 1.56 µg/mL; in [17], 0.5 µg/mL (≈ 1.43 µM); in experiment [18] it was 1.56 µg/mL; in experiment [19], 1.56 µg/mL (≈ 4.46 µM); in experiment [20] it was 1 µg/mL (≈ 2.86 µM); in experiment [21] it was 1.56 µg/mL. Further, the MIC in experiment [22] stood at 4 µg/mL (≈ 11.4 µM); in [23], 1.56 µg/mL.

For `OC(Cn1cncn1)(Cn1cncn1)c1ccc(F)cc1F` [FLUCONAZOLE], the MIC in experiment [24] was determined as 40 µM (≈ 12.3 µg/mL); in experiment [26] it was 40 µM (≈ 12.3 µg/mL); in experiment [28], 0.5 µg/mL (≈ 1.63 µM); in experiment [29], 0.5 µg/mL (≈ 1.63 µM); in [30] it was 4 µg/mL (≈ 13.1 µM); in experiment [33] it was 4 µg/mL (≈ 13.1 µM). The MIC worked out at 0.5 µg/mL (≈ 1.63 µM) in [34]; 16 µg/mL (≈ 52.2 µM) in experiment [37]; 0.5 µg/mL (≈ 1.63 µM) in experiment [38]; 1 µg/mL (≈ 3.27 µM) in experiment [40]; 20.4 µg/mL in [2]; 4 µg/mL (≈ 13.1 µM) in [41]. The minimum inhibitory concentration (MIC) in experiment [42] was 0.5 µg/mL (≈ 1.63 µM). In addition, the MIC80 (as a rule, the lowest concentration that inhibits either 80% of growth or 80% of the strains tested, depending on the study) in [25] is above 64 µg/mL; in experiment [27], 0.5 µg/mL (≈ 1.63 µM); in experiment [31] it was 0.25 µg/mL (≈ 0.816 µM); in [32], 8 µg/mL (≈ 26.1 µM); in experiment [35], 2 µg/mL (≈ 6.53 µM); in [36], 1 µg/mL (≈ 3.27 µM). Moreover, the MIC80 in [39] was found to be 32 µg/mL (≈ 104 µM).

For `CC(=O)N1CCN(c2ccc(OCC3COC(Cn4ccnc4)(c4ccc(Cl)cc4Cl)O3)cc2)CC1` (stereo not given) [KETOCONAZOLE], the “diameter of the inhibition zone (DIZ)” value in experiment [43] and in [44] was 14 mm each time.
